Laboratory results published in patent publication US5037830A, “Novel thiouracyl derivatives, pharmaceutical compositions containing them and process for preparing same” (Richter Gedeon Vegyeszeti Gyar RT, priority 1989, dated 1991).
Read-outs that look alike come from different tables or passages of the source.

What was measured:
[1] = system: spontaneous gastric acid secretion; assay: Gastric acid secretion-inhibiting effect according to Shay's method; assay type: in vivo, female OFA rats; settings: for Gastric acid, change / Gastric juice, change: vs control; for Gastric acid, treated: titration with 0.1N NaOH; for inhibitor effect on gastric acid secretion, in words: compared with reference drugs; for ED50: po, gastric acid, Shay rat
Method: After being starved for 24 hours, female OFA rats weighing 130 to 160 g were orally treated with the compounds to be tested. (15 animals were used for each dose.) One hour later laparotomy and pylorus ligature were carried out under ether anaesthesia according to Shay [Gastroenterology 5, 43 (1945)]. After 5 hours the animals were killed by an overdose of ether, their stomaches were excised and the volume and acid content of the gastric juice were determined. The acid was measured by titration with 0.1N NaOH, by using Topfer's indicator.

[2] = system: necrosis induced by ethanol containing hydrochloric acid; assay: Cytoprotective effect (modified Robert's test); assay type: in vivo; settings: for Bleedings, change: vs control; for ED50: po, cytoprotection
Method: The modified Robert's test [Gastroenterology 17, 761 (1979)] was used. The necrotizing agent (100 ml of abs. ethanol containing 2 ml of concentrated hydrochloric acid) was orally administered in a volume of 0.5 ml/100 g by 30 minutes after giving the compound to be tested. (12 animals were used for each dose.) After 1 hour the animals were killed by ether and the bleedings on the glandular part of their stomach were evaluated.

[3] = system: gastric ulcer after pylorus ligature; assay: Gastric ulcer-inhibiting effect in rats operated according to Shay's method; assay type: in vivo, female OFA rats; settings: Rattus norvegicus, po, 18 h, p.o.
Method: Female OFA rats starved for 24 hours weighing 150 to 160 g were used. (The animals were allowed to drink water ad libitum). The animals were orally treated with the substance to be tested and after 1 hour laparotomy and pylorus ligature according to Shay [Gastroenterology 5, 43 (1945)] were performed under ether anaesthesia. After 18 hours the number and size of ulcers formed on the membranaceous part of the stomach were examined under microscope. The evaluation was made in relation to the control group and the ED50 values were determined. The sizes of the ulcers were expressed as score values from 0.5 to 32.

[4] = system: reserpine-induced gastric ulcer; assay: Inhibition of the reserpine-induced gastric ulcer; assay type: in vivo, female OFA rats; settings: Rattus norvegicus, po, 18 h, p.o., reserpine 5 mg/kg s.c.
Method: After being starved for 24 hours, female OFA rats were orally treated with the compounds to be tested and then subcutaneously (s.c.) with 5 mg/kg of reserpine after 1 hour. After 18 hours the animals were killed and their stomach were examined under microscope. The evaluation was performed as described under the preceding paragraph 1.

[5] = read-out: ED50 related to the number of ulcers
[6] = read-out: ED50 related to the occurrance of ulcers
[7] = read-out: ED50 related to the severity of ulcers

SMILES | Gastric juice, treated ([1]; 5 mg/kg p.o.) [mL] | Gastric acid, change ([1]; 5 mg/kg p.o.) [%] | Gastric juice, change ([1]; 5 mg/kg p.o.) [%] | Gastric acid, treated ([1]; 5 mg/kg p.o.) [mL] | Gastric juice, treated ([1]; 10 mg/kg p.o.) [mL] | Gastric acid, change ([1]; 10 mg/kg p.o.) [%] | Gastric juice, change ([1]; 10 mg/kg p.o.) [%] | Gastric acid, treated ([1]; 10 mg/kg p.o.) [mL] | Gastric juice, treated ([1]; 20 mg/kg p.o.) [mL] | Gastric acid, change ([1]; 20 mg/kg p.o.) [%] | Gastric juice, change ([1]; 20 mg/kg p.o.) [%] | Gastric acid, treated ([1]; 20 mg/kg p.o.) [mL] | Gastric juice, treated ([1]; 40 mg/kg p.o.) [mL] | Gastric acid, change ([1]; 40 mg/kg p.o.) [%] | Gastric juice, change ([1]; 40 mg/kg p.o.) | Gastric acid, treated ([1]; 40 mg/kg p.o.) [mL] | inhibitor effect on gastric acid secretion, in words [1] | ED50 [1] [mg/kg] | Bleedings, treated ([2]; 5 mg/kg p.o.) [mm] | Bleedings, change ([2]; 5 mg/kg p.o.) [%] | other results
CN(C)c1ccccc1CSc1nc(-c2ccccc2)cc(=O)[nH]1 [Example 5, 2-(2-dimethylamino-benzyl)thio-6-phenyl-4(3H)-pyrimidinone] | 5.77 | -24.9 | -17.3 | 2.11 | 5.51 | -62.0 | -19.6 | 2.06 | 4.33 | -86.3 | -37.1 | 0.37 | 6.80 | -94.5 | +6.8% | 0.18 | more active then either of both reference drugs | 8.1 | 73.5 | -26.3 | Bleedings, treated ([2]; 10 mg/kg p.o.): 47.6 mm; Bleedings, change ([2]; 10 mg/kg p.o.): -52.3%; Bleedings, treated ([2]; 20 mg/kg p.o.): 24.3 mm; Bleedings, change ([2]; 20 mg/kg p.o.): -81.7%; ED50 [2]: 9.9 mg/kg
CCN(C)c1ccccc1CSc1nc(C)cc(=O)[nH]1 [Example 10] | – | – | – | – | 5.23 | -32.5 | -13.7 | 1.89 | 5.23 | -60.3 | -18.0 | 1.23 | 5.39 | -87.3 | -24.8% | 0.45 | equiactive to the NC-1300 reference drug | 15.5 | – | – | –
COc1ccc2[nH]c([S+]([O-])Cc3ncc(C)c(OC)c3C)nc2c1 (centres unmarked) [Omeprazole, 2-[[(3,5-dimethyl-4-methoxypyridin-2-il)-methyl]-sulfinyl]-5-methoxy-1H-benzimidazole, reference compound] | 5.40 | -35.4 | -21.5 | 1.75 | 5.47 | -37.3 | -20.5 | 1.70 | 4.30 | -74.7 | -38.4 | 0.71 | – | – | – | – | – | 10.5 | 61.8 | -27.1 | Bleedings, treated ([2]; 10 mg/kg p.o.): 46.0 mm; Bleedings, change ([2]; 10 mg/kg p.o.): -45.8%; Bleedings, treated ([2]; 20 mg/kg p.o.): 14.2 mm; Bleedings, change ([2]; 20 mg/kg p.o.): -83.8%; ED50 [2]: 10 mg/kg; ED50 [3, 5]: 9.2 mg/kg; ED50 [3, 6]: 17 mg/kg; ED50 [3, 7]: 11 mg/kg; ED50 [4, 5]: 17 mg/kg; ED50 [4, 6]: 24 mg/kg; ED50 [4, 7]: 20 mg/kg
